Patent publication US20140371237A1, “p19Arf, HMGA2 and MDM2 For Use in the Diagnosis and Treatment of Aberrant Cell Growth” (University of Bremen, priority 2010, published 2014)

Columns and labels:
Format in all cases: cell-based, human
UL cells = assay: In situ β-galactosidase staining and mitotic rate of UL cells treated with nutlin-3; conditions: nutlin-3 30 and 50 μM, 24 h and 72 h
Description: For treatment by nutlin-3 cells of an UL with an apparently normal karyotype (5th in vitro passage) were plated in Leighton-tubes at a density of 200,000 on 10 mm×50 mm cover slips 24 h before incubation with nutlin-3 (Biomol, Hamburg, Germany). Cells of the UL were treated with 30 μM and 50 μM nutlin-3 for 24 h and for 72 h, respectively. As controls cells were cultured in medium 199 supplemented with 20% FCS without nutlin-3 for 24 h and 72 h.
After incubation with nutlin-3 β-galactosidase staining of senescent cells was performed using a commercially available in situ β-galactosidase staining kit (Agilent, Waldbronn, Germany) according to the manufacturer's instructions. After incubation with staining solution at 37° C. for 24 h cells were washed two times with 1×PBS and analyzed using an axioscope (Zeiss, Gottingen, Germany). The numbers of β-galactosidase-positive cells and of mitotic cells were counted using photomicrographs of ten randomly selected fields at 10× magnification.

[1] = system: p53 in explants from an UL; assay: Western blot analysis of p53 in UL explants treated with nutlin-3; conditions: explants of case 0700-1, 30 μM and 50 μM, 72 h
Description: Nutlin-3 acts as an inhibitor of MDM2 which in turn destabilizes p53. To see whether the increased expression of the senescence and apoptotic markers noted after treatment of the explants with nutlin-3 was indeed due to an elevated level of p53, explants of case 0700-1 treated with 30 μM and 50 μM nutlin-3, respectively, for 72 h were used for immunoblot analyses.
For treatment with nutlin-3 (Biomol, Hamburg, Germany) tissue samples were minced into small pieces of approximately 0.5 cm diameter and incubated in medium 199 supplemented with 20% FCS and nutlin-3 (3, 10, or 50 μM) for 72 h. As controls tissue explants were incubated in medium 199 supplemented with 20% FCS without nutlin-3 for 72 h.
Protein extracts were obtained using RIPA buffer and concentrations were determined using a BCA protein assay (Thermo Scientific, Rockford, USA) according to the manufacturer's instructions. Total protein (16 μg per lane) was separated using a SDS-polyacrylamide gel and transferred onto a nitrocellulose membrane. SeeBlue Plus2 Pre-Stained Standard (Invitrogen, Karlsruhe, Germany) was used as marker. […]

[2] = system: p53 in tissue explants (UL and matching myometrium); assay: Immunohistochemical staining for p53 of tissue explants treated with nutlin-3
Description: […] As controls tissue explants were incubated in medium 199 supplemented with 20% FCS without nutlin-3 for 72 h.
The immunohistochemical staining for the p53 protein (clone DO-7, DAKO, Glostrup, Denmark) was performed using a detection kit (DAKO ChemMate, DAKO, Glostrup, Denmark) and a semi-automated stainer (DAKO TechMate, DAKO, Glostrup, Denmark) according to the specifications of the manufacturer. For antigen retrieval the slides were treated in a PT Link module (DAKO, Glostrup, Denmark) using the EnVision™ FLEX Target Retrieval Solution, Low pH (DAKO, Glostrup, Denmark). The antibody dilution was 1:100.

[3] = case 0687-0, 10 μM, 72 h (control 0)
[4] = case 0687-0, 30 μM, 72 h (control 0)
[5] = case 0687-1, 10 μM, 72 h (control 0)
[6] = case 0695-0, 10 μM, 6 days (control 0)
[7] = case 0695-0, 30 μM, 6 days (control 0)
[8] = case 0695-1, 10 μM, 6 days (control 0)
[9] = case 0695-1, 30 μM, 6 days (control 0)
[10] = case 0695-2, 10 μM, 6 days (control 0)
[11] = case 0695-2, 30 μM, 6 days (control 0)
[12] = case 0695-3, 10 μM, 6 days (control 0)
[13] = case 0695-3, 30 μM, 6 days (control 0)

COc1ccc(C2=N[C@@H](c3ccc(Cl)cc3)[C@@H](c3ccc(Cl)cc3)N2C(=O)N2CCNC(=O)C2)c(OC(C)C)c1 [nutlin-3]
mitoses (UL cells): nearly absent
number of β-galactosidase positive tumor cells (UL cells; compared to controls): clearly increased
amount of p53 (immunoblot) [1]: concentration-dependent increase
intensity (p53 staining, IHC) [2, 3]: 1
number of p53-positive cells [2, 3]: 2
intensity (p53 staining, IHC) [2, 4]: 2
number of p53-positive cells [2, 4]: 257
intensity (p53 staining, IHC) [2, 5]: 2
number of p53-positive cells [2, 5]: 398
intensity (p53 staining, IHC) ([2]; case 0694-2, 10 μM, 72 h (control 0-1)): 2
number of p53-positive cells ([2]; case 0694-2, 10 μM, 72 h (control 11)): 393
intensity (p53 staining, IHC) ([2]; case 0694-2, 30 μM, 72 h (control 0-1)): 3
number of p53-positive cells ([2]; case 0694-2, 30 μM, 72 h (control 11)): 1,277
intensity (p53 staining, IHC) [2, 6]: 1
number of p53-positive cells [2, 6]: 11
intensity (p53 staining, IHC) [2, 7]: 1
number of p53-positive cells [2, 7]: 188
intensity (p53 staining, IHC) [2, 8]: 0-1
number of p53-positive cells [2, 8]: 42
intensity (p53 staining, IHC) [2, 9]: 1
number of p53-positive cells [2, 9]: 89
intensity (p53 staining, IHC) [2, 10]: 1-2
number of p53-positive cells [2, 10]: 194
intensity (p53 staining, IHC) [2, 11]: 3
number of p53-positive cells [2, 11]: 799
intensity (p53 staining, IHC) [2, 12]: 3
number of p53-positive cells [2, 12]: 770
intensity (p53 staining, IHC) [2, 13]: 3
number of p53-positive cells [2, 13]: 1,493
number of p53-positive cells, UL compared with matching myometrium ([2]; explants treated by nutlin-3): increased number of p53-positive cells
intensity of p53 staining (IHC) ([2]; explants treated by nutlin-3, concentration-dependent): clearly increased intensity
